Laboratory results published in patent US11072632B2, “Inhibitors of 17β-HSD1, 17β-HSD3 and 17β-HSD10” (UNIVERSITÉ LAVAL, priority 2011, dated 2021).
Several values for one entry are separate records, joined by “and”; a condition that tells them apart may be missing. Equal entries are not always repeated. Where two headings read alike, the source gives them in different places.

Columns and labels:
[1] = test system: ovariectomized (OVX) mice; experiment: In vivo estrogenic activity (uterotrophic assay) in OVX mice; parameters: species or system mouse; settings: for increase in uterine weight vs. control group: 100 μg/kg s.c. BID, 7 days
Experimental: The mice were fed rodent chow and tap water ad libitum. The animals were ovariectomized (OVX) under isoflurane-anaesthesia via bilateral flank incisions and randomly assigned to groups (5 animals by group). Mice in the OVX control group received the vehicle alone (8% ethanol-0.4% methylcellulose) during the 7-day period. The possible estrogenic activity of tested compounds was evaluated after their administration by subcutaneous (s.c.) injection [1, 10 and 100 μg/kg, s.c., twice daily (BID)] as suspension in 8% ethanol-0.4% methylcellulose to OVX female mice for 7 days. On day 8, the mice were sacrificed by cervical dislocation. The uteri and vagina were rapidly removed, freed from fat and connective tissue and weighed. Results are the means±SEM of 5 mice per group.

[2] = test system: androgen-sensitive (AR+) Shionogi cells; experiment: Proliferative (androgenic) activity on androgen-sensitive Shionogi cells; assay type: cell-based; settings: for cell proliferation, % of basal: basal (control) 100%; for proliferative (androgenic) effect: 0.1 and 1 μM
Experimental: The proliferative (androgenic) activity was determined using androgen-sensitive Shionogi cells following a known literature procedure.^54 Inhibitors and reference compounds were tested at two concentrations (0.1 and 1.0 μM). The androgenicity was reported as % cell proliferation (versus the control). The basal cell proliferation (control) was fixed at 100%.

17β-HSD3 [3] = target: T1, 17β-HSD3 (Homo sapiens, UniProt P37058); experiment: Inhibition of 17β-HSD3 in homogenated HEK-293 cells; assay type: biochemical
T1 construct: expressed in transfected cells; host or cells: HEK-293 (homogenate)
T1 sequence (P37058 1-310): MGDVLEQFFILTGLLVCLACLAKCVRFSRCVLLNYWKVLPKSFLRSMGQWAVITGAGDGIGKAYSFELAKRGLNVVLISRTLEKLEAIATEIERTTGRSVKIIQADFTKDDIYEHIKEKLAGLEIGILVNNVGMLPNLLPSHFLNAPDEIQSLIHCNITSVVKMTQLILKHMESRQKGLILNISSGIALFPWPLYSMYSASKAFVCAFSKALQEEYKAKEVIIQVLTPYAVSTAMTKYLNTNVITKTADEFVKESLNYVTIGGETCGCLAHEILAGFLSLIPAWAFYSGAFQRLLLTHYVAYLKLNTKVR

17β-HSD3 [4] = target: T1, 17β-HSD3; experiment: Inhibition of 17β-HSD3 in intact HEK-293 cells; assay type: cell-based
17β-HSD10 = target: T2, 17β-HSD10 (Homo sapiens, UniProt Q99714); experiment: Inhibition of 17β-HSD10 in stably transfected HEK-293 whole cells (E2 into E1); assay type: cell-based; settings: [14C]-E2 (1 μM) into [14C]-E1, intact HEK-293 cells, 1 μM
T2 construct: expressed in transfected cells
T2 sequence (Q99714 1-261): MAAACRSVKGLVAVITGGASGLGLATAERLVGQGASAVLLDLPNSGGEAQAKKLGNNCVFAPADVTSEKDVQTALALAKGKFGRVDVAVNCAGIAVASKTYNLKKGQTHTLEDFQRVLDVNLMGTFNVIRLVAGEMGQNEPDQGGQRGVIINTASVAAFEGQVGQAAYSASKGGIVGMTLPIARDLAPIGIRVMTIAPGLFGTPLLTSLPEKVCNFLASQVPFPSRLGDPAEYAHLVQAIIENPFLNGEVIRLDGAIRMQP

17β-HSD1 = target: T3, 17β-HSD1 (Homo sapiens, UniProt P14061); experiment: Inhibition of 17β-HSD1 in T-47D intact cells (E1 into E2); assay type: cell-based; settings: T47D
T3 construct: endogenous in cells; host or cells: T-47D
T3 sequence (P14061 1-328): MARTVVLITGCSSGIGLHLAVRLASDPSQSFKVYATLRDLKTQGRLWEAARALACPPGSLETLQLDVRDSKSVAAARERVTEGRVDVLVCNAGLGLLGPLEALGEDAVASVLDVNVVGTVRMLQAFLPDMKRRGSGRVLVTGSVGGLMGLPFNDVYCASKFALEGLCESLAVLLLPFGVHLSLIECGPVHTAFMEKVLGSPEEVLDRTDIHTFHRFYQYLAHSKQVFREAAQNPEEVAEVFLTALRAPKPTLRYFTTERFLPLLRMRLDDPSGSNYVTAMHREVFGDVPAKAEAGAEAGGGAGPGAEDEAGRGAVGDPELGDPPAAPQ
Experimental: T-47D cells were seeded in a 24-well plate (3000 cells/well) in medium supplemented with insulin (50 ng/mL) and 5% dextran-coated charcoal treated FBS rather than 10% FBS to remove remaining hormones. […] Each inhibitor was assessed in triplicate. After incubation, the culture medium was removed and labelled steroids (E1 and E2) extracted with 1 mL of diethyl ether. The organic phases were separated and evaporated to dryness using nitrogen. Residues were dissolved in dichloromethane and dropped on silica gel thin layer chromatography plates (EMD Chemicals Inc., Gibbstown, N.J., USA) and eluted with a toluene/acetone (4:1) solvent system. Substrate [^14C]-E1 and metabolite [^14C]-E2 were identified by comparison with reference steroids and quantified using a Storm 860 system (Molecular Dynamics, Sunnyvale, Calif., USA).
T-47D cells were seeded in a 24-well plate (3000 cells/well) in 990 μL of medium supplemented with insulin (50 ng/mL) and 5% dextran-coated charcoal-treated FBS, which was used rather than untreated 10% FBS, to remove the remaining steroid hormones. […] The final concentration of ethanol in the well was adjusted to 0.1%. Additionally, 5 μL of a solution of [^14C]-estrone (American Radiolabeled Chemicals, Inc., St. Louis, Mo., USA) was added to obtain a final concentration of 60 nM. […] After incubation, the culture medium was removed and labeled steroids (E1 and E2) were extracted with 1 mL of diethyl ether. The organic phases were evaporated to dryness with nitrogen. Residues were dissolved in dichloromethane and dropped on silica gel thin layer chromatography plates (EMD Chemicals Inc., Gibbstown, N.J., USA) and eluted with toluene/acetone (4:1) as solvent system. Substrate [^14C]-E1 and metabolite [^14C]-E2 were identified by comparison with reference steroids (E1 and E2) and quantified using the Storm 860 system (Molecular Dynamics, Sunnyvale, Calif., USA).

MCF-7 cells = experiment: Estrogenic activity in MCF-7 cells; assay type: cell-based, human; settings: 7 days; for Estrogenicity (0.1 μM): key: — = no; + = weak; ++ = medium to strong; for Estrogenicity (1.0 μM): key: — = no; + = weak; ++ = medium to strong
Experimental: MCF-7 cells were seeded with medium supplemented with insulin (50 ng/mL) and 5% dextran-coated charcoal treated FBS rather than 10% FBS to remove remaining hormones. Aliquots (100 μL) of the cell suspension were seeded in 96-well plates (3000 cells/well). […] Cells were grown either in the absence or presence of the compounds over a period of 7 days. Quantification of cell growth was determined by using the CellTiter 96®Aqueous Solution Cell Proliferation Assay (Promega, Nepean, ON, Canada) following the manufacturer's instructions. To determine the proliferative (estrogenic) activity, the cells were grown in the absence (control fixed as 100%) or presence of the tested compounds at the indicated concentrations.

C[C@]12CC[C@@H]3c4ccc(O)cc4CC[C@H]3[C@@H]1CC[C@H]2O [17α-E2 (2), 17α-estradiol]
increase in uterine weight vs. control group [1]: 3.6 fold

C[C@@]12CC[C@@H]3c4ccc(O)cc4CC[C@H]3[C@@H]1CC[C@H]2O [18-epi-17α-E2 (4), (13α,17α)-estra-1(10),2,4-triene-3,17-diol]
increase in uterine weight vs. control group [1]: 2.6 fold

C[C@@]12CC[C@@H]3c4ccc(O)cc4CC[C@H]3[C@@H]1CC[C@@H]2O [18-epi-17β-E2 (3), (13α,17β)-estra-1(10),2,4-triene-3,17-diol]
increase in uterine weight vs. control group [1]: 1.5 fold
uterotrophic activity ([1]; uterus and vagina, OVX mice): no significant uterotrophic activity

C[C@]12CC[C@](O)(Cc3ccccc3)C[C@@H]1CC[C@@H]1[C@@H]2CC[C@]2(C)C(=O)CC[C@@H]12 [CS-213, 3β-benzyl-3α-hydroxy-5α-androstan-17-one, reference compound]
cell proliferation, % of basal ([2]; 0.1 μM): 225%
cell proliferation, % of basal ([2]; 1 μM): 396%

CCN(Cc1ccccc1)C[C@@]1(O)CC[C@@]2(C)[C@@H](CC[C@@H]3[C@@H]2CC[C@]2(C)C(=O)CC[C@@H]32)C1 [Compound 7a, (3α,5α)-3{[benzyl(ethyl)amino]methyl}3-hydroxyandrostan-17-one]
inhibition at 0.1 µM (17β-HSD3 [3]; Table 2 (17β-HSD3), 0.1 μM, read-out: Homo (%) (0.1 μM)): 85%
inhibition at 1 µM (17β-HSD3 [3]; Table 2 (17β-HSD3), 1 μM, read-out: Homo (%) (1 μM)): 90%
inhibition at 0.01 µM (17β-HSD3 [3]; Table 2 (17β-HSD3), [14C]-Δ4-dione 50 nM into [14C]-T, 0.01 μM, read-out: Homo (%) (0.01 μM)): 42%
inhibition at 0.1 µM (17β-HSD3 [4]; HEK293, 1 h, Table 2 (17β-HSD3), 0.1 μM, read-out: Intact cells (%) (0.1 μM)): 86%
inhibition at 1 µM (17β-HSD3 [4]; HEK293, 1 h, Table 2 (17β-HSD3), 1 μM, read-out: Intact cells (%) (1 μM)): 94%
cell proliferation, % of basal ([2]; 0.1 μM): 292%
cell proliferation, % of basal ([2]; 1 μM): 314%

CC1CN(S(=O)(=O)c2ccccc2C(F)(F)F)C(C)CN1CC1(O)CCC2(C)C(CCC3C4CCC(=O)C4(C)CCC32)C1 (stereo not drawn) [Compound 15b, (3α,5α)-3-{[(2ξ,5ξ)-2,5-dimethyl-4-{[2-(trifluoromethyl)phenyl]sulfonyl}piperazin-1-yl]methyl}-3-hydroxyandrostan-17-one]
Homo (%) (0.01 μM) (17β-HSD3 [3]; Table 3, 0.01 μM): 55%
Homo (%) (0.1 μM) (17β-HSD3 [3]; Table 3, 0.1 μM): 92%
Inhibition (%) at 1 μM (17β-HSD10): 30%
Intact cells (%) (0.1 μM) (17β-HSD3 [4]; Table 3, 0.1 μM): 84%
IC50 (17β-HSD3 [4]; intact HEK-293 cells overexpressing 17β-HSD3, [14C]-Δ4-dione 50 nM): 6 nM and 5 nM
fold better inhibitor than reference compound 5 (17β-HSD3 [4]; ratio of IC50 values): 8 fold
fold better than unlabelled Δ4-dione used as inhibitor (17β-HSD3 [4]; ratio of IC50 values): 56 fold
proliferative (androgenic) effect [2]: did not stimulate the proliferation of AR^+ cells

C[C@]12CC[C@@]3(C[C@@H]1CC[C@@H]1[C@@H]2CC[C@]2(C)C(=O)CC[C@@H]12)CN(Cc1ccccc1)C(=O)O3 [Compound 17a, (3R,5S,8R,9S,10S,13S,14S)-3′-benzyl-10,13-dimethyltetradecahydro-2′H spiro[cyclopenta[α]phenanthrene-3,5′-[1,3]oxazolidine]-2′,17(2H)-dione]
inhibition at 0.01 µM (17β-HSD3 [3]; read-out: Homo (%) (0.01 μM), Table 4, 0.01 μM): 21%
inhibition at 0.1 µM (17β-HSD3 [3]; read-out: Homo (%) (0.1 μM), Table 4, 0.1 μM): 86%
inhibition at 1 µM (17β-HSD3 [3]; read-out: Homo (%) (1.0 μM), Table 4, 1.0 μM): 93%
inhibition at 0.1 µM (17β-HSD3 [4]; HEK293, 1 h, read-out: Intact cells (%) (0.1 μM), Table 4, 0.1 μM): 44%
proliferative (androgenic) effect [2]: did not stimulate the proliferation of AR^+ cells

C[C@]12CC[C@@H]3c4ccc(CCO)cc4CC[C@H]3[C@@H]1CC(Cc1cccc(C(N)=O)c1)[C@@H]2O (stereo partly drawn) [IV, 3-{[(17β)-17-hydroxy-3-(2-hydroxyethyl)estra-1(10),2,4-trien-16-yl]methyl}benzamide]
inhibition at 0.1 µM (17β-HSD1; Table 2 (17β-HSD1), [14C]-E1 60 nM, T-47D intact cells, read-out: Inhibition (0.1 μM)): 19%
inhibition at 1 µM (17β-HSD1; Table 2 (17β-HSD1), [14C]-E1 60 nM, T-47D intact cells, 1 μM, read-out: Inhibition (1 μM)): 57%
inhibition at 0.01 µM (17β-HSD1; [14C]-E1 (60 nM) into [14C]-E2, T-47D intact cells, 0.01 μM, read-out: Inhibition % (0.01 μM)): 7%
inhibition at 0.1 µM (17β-HSD1; [14C]-E1 (60 nM) into [14C]-E2, T-47D intact cells, read-out: Inhibition % (0.1 μM)): 17%
estrogenic activity on MCF-7 cells (FIG. 1) (MCF-7 cells; concentrations up to 5 μM): completely removed any estrogenic activity
Estrogenicity (0.1 μM) (MCF-7 cells; growth of estrogen-starved MCF-7 cells, 0.1 μM): +
Estrogenicity (1.0 μM) (MCF-7 cells; growth of estrogen-starved MCF-7 cells, 1.0 μM): ++
